Results from patent US20240210394A1, “MICROORGANISM CAPTURE FROM ANTIMICROBIAL-CONTAINING SOLUTION” (MOMENTUM BIOSCIENCE LIMITED, priority 2019, published 2024).
“And” between values parts separate entries of the source, which are not always exact repeats. Equal entries are not always repeated.

How the values were obtained:
E. coli [1] = test: Confirm PCR multiplex (microbial DNA, GrNeg channel) after microbial capture; type: cell-based; design: key: Ct values (qPCR cycle threshold)
E. coli [2] = test: Blood culture time to positivity (flip time), bead rescue vs no-rescue control; type: cell-based; settings: Piperacillin 96 ug/mL blood; for Flip time in Days: No bead rescue Control BC; for Time to positivity in days: 1800 cfu/5 ml

Row | Molecule | Confirm GrNeg results (E. coli [1]; WB SPS 0.01 %, EC 1-3 replicates) | Confirm GrNeg results (E. coli [1]; WB SPS 0.01 %, NSC 1-3 replicates) | Confirm GrNeg results (E. coli [1]; WB SPS 0.02 %, EC 1-3 replicates) | Confirm GrNeg results (E. coli [1]; WB SPS 0.02 %, NSC 1-3 replicates) | Confirm GrNeg results (E. coli [1]; WB SPS 0.04 %, EC 1-3 replicates) | Confirm GrNeg results (E. coli [1]; WB SPS 0.04 %, NSC 1-3 replicates) | Confirm GrNeg results (E. coli [1]; WB SPS 0.06 %, EC 1-3 replicates) | Confirm GrNeg results (E. coli [1]; WB SPS 0.06 %, NSC 1-3 replicates) | Confirm GrNeg results (E. coli [1]; WB SPS 0.08 %, EC 1-3 replicates) | Confirm GrNeg results (E. coli [1]; WB SPS 0.08 %, NSC 1-3 replicates) | Confirm GrNeg results (E. coli [1]; WB SPS 0.1 %, EC 1-3 replicates) | Confirm GrNeg results (E. coli [1]; WB SPS 0.1 %, NSC 1-3 replicates) | Flip time in Days (E. coli [2]; 50000 cfu/5 mL) | Flip time in Days (E. coli [2]; 150000 cfu/5 mL) | Time to positivity in days (E. coli [2]; Control (no beads)) | Time to positivity in days (E. coli [2]; with magnetic beads in the bottle)
1 | Sodium polyanethol sulfonate [SPS] | 27.94 and 29.18 and 28.32 | NoCt | 29.15 and 28.16 and 29.75 | NoCt | 28.71 and 28.75 and 29.82 | NoCt | 31.58 and 29.77 and 29.26 | NaCt and NoCt (2×) | 29.20 and 29.80 and 28.87 | NoCt | 29.27 and 28.65 and 29.61 | 47.82 and NoCt (2×) |  |  |  | 
2 | CCN1CCN(C(=O)N[C@@H](C(=O)N[C@@H]2C(=O)N3[C@@H]2SC(C)(C)[C@@H]3C(=O)O)c2ccccc2)C(=O)C1=O [Piperacillin] |  |  |  |  |  |  |  |  |  |  |  |  | Neg | Neg | Neg | Neg
